Experimental data taken from US5281596A, “Antibacterial drugs for fish” (Bayer Aktiengesellschaft, priority 1986, dated 1994).
Converted amounts (≈) assume the structure as drawn. Where two headings read alike, the source gives them in different places.

How the values were obtained:
Assay type in all cases: cell-based
[1] = system: Edwardsiella tarda; assay: In vitro antibacterial activity of Compound D against various pathogenic bacteria for fish (agar MIC, Test Example 2); conditions: 20 h, read-out: MIC (minimum growth-inhibition concentration)
Experimental: (§1) In vitro antibacterial activity of Compound D against Various Pathogenic Bacteria for Fish
(§2) Each of the test strains was cultured over-night, and the resultant culture broth (containing about 10^6 cells/ml) was innoculated in Mueller-Hinton agar (DIFCO) supplied with 1.0-2.0% sodium chloride and containing the test compound at the specified concentration.

[2] = system: Pasteurella piscicida; assay: as above; conditions: Photobacterium damselae, 20 h, read-out: MIC (minimum growth-inhibition concentration)
Experimental: as §1, §2

[3] = system: Aeromonas salmonicida; assay: as above; conditions: 20 h, read-out: MIC (minimum growth-inhibition concentration)
Experimental: as §1, §2

[4] = system: Streptococcus sp.; assay: as above; conditions: 20 h, read-out: MIC (minimum growth-inhibition concentration)
Experimental: as §1, §2

[5] = system: Aeromonas hydrophila; assay: as above; conditions: 20 h, read-out: MIC (minimum growth-inhibition concentration)
Experimental: as §1, §2

[6] = system: Vibrio anguillarum; assay: as above; conditions: 20 h
Experimental: as §1, §2

[7] = system: Pseudomonas anguilliseptica; assay: as above; conditions: 20 h, read-out: MIC (minimum growth-inhibition concentration)
Experimental: as §1, §2

[8] = system: Pasteurella piscicida; assay: In vitro antibacterial activity on pathogenic bacteria for fish (agar MIC, Test Example 1); conditions: 20 h; for MIC: Photobacterium damselae; for MIC (minimum growth-inhibition concentration): Mueller-Hinton agar
Experimental: (§3) In vitro antibacterial activity on pathogenic-bacteria for fish
(§4) Each of the test strains was cultured over-night, and each culture broth (containing about 10^6 cells/ml) was innoculated in Mueller-Hinton agar (DIFCO) supplied with 1.0-2.0% sodium chloride and containing the test compound at each specified concentration.

[9] = system: Aeromonas hydrophila; assay: as above; conditions: 20 h; for MIC: Aeromonas hydrophila; for MIC (minimum growth-inhibition concentration): Mueller-Hinton agar
Experimental: as §3, §4

[10] = system: Vibrio anguillarum; assay: as above; conditions: 20 h; for MIC (minimum growth-inhibition concentration): Mueller-Hinton agar; for MIC: Vibrio anguillarum, read-out: MIC (minimum growth-inhibition concentration)
Experimental: as §3, §4

[11] = 25 strains, Mueller-Hinton agar, 25-30 °C

For `CCn1cc(C(=O)O)c(=O)c2cc3c(cc21)OCO3` [Compound OA, 1-ethyl-1,4-dihydro-6,7-methylenedioxy-4-oxo-3-quinolinecarboxylic acid, reference compound], the MIC [1] was 0.05 to 1.6 µg/mL (≈ 0.191 to 6.12 µM), the MIC [2] was 0.025 to 0.1 µg/mL (≈ 0.0957 to 0.383 µM) and the MIC [3] was 0.05 to 3.2 µg/mL (≈ 0.191 to 12.2 µM). The MIC ([4]; Streptococcus) was 200 to 400 µg/mL (≈ 766 to 1530 µM), the MIC [5] was 0.0125 to 0.025 µg/mL (≈ 0.0479 to 0.0957 µM) and the MIC ([6]; read-out: MIC (minimum growth-inhibition concentration), Vibrio anguillarum, Ayu origin, 25 strains, Mueller-Hinton agar, 25-30 °C) was 0.05 to 25 µg/mL (≈ 0.191 to 95.7 µM). For the same compound, the MIC ([6]; read-out: MIC (minimum growth-inhibition concentration), Vibrio anguillarum, Yellowtail origin, 25 strains, Mueller-Hinton agar, 25-30 °C) was 0.025 to 0.05 µg/mL (≈ 0.0957 to 0.191 µM), the MIC [7] was 0.0125 to 0.05 µg/mL (≈ 0.0479 to 0.191 µM) and the MIC ([8]; read-out: MIC (minimum growth-inhibition concentration), Pasteurella piscicida strain EH8304, Mueller-Hinton agar, 25-30 °C) was 0.1 µg/mL (≈ 0.383 µM). For the same compound, the MIC ([8]; read-out: MIC (minimum growth-inhibition concentration), Pasteurella piscicida strain EH8309, Mueller-Hinton agar, 25-30 °C) was 0.1 µg/mL (≈ 0.383 µM), the MIC ([8]; read-out: MIC (minimum growth-inhibition concentration), Pasteurella piscicida strain EH8312, Mueller-Hinton agar, 25-30 °C) was 0.1 µg/mL (≈ 0.383 µM) and the MIC ([8]; read-out: MIC (minimum growth-inhibition concentration), Pasteurella piscicida strain EH8313, Mueller-Hinton agar, 25-30 °C) was 0.1 µg/mL (≈ 0.383 µM). For the same compound, the MIC ([8]; read-out: MIC (minimum growth-inhibition concentration), Pasteurella piscicida strain NG8319, Mueller-Hinton agar, 25-30 °C) was 0.1 µg/mL (≈ 0.383 µM), the MIC ([9]; read-out: MIC (minimum growth-inhibition concentration), Aeromonas hydrophila strain C 44, Mueller-Hinton agar, 25-30 °C) was less than 0.0125 µg/mL and the MIC ([9]; read-out: MIC (minimum growth-inhibition concentration), Aeromonas hydrophila strain KA8301, Mueller-Hinton agar, 25-30 °C) was less than 0.0125 µg/mL. The MIC ([9]; read-out: MIC (minimum growth-inhibition concentration), Aeromonas hydrophila strain KA8414, Mueller-Hinton agar, 25-30 °C) was less than 0.0125 µg/mL, the MIC ([9]; read-out: MIC (minimum growth-inhibition concentration), Aeromonas hydrophila strain KA8416, Mueller-Hinton agar, 25-30 °C) was less than 0.0125 µg/mL and the MIC ([9]; read-out: MIC (minimum growth-inhibition concentration), Aeromonas hydrophila strain M 183, Mueller-Hinton agar, 25-30 °C) was less than 0.0125 µg/mL. The “MIC (minimum growth-inhibition concentration)” value ([10]; Vibrio anguillarum strain NA8340, 25-30 °C) was 0.05 µg/mL (≈ 0.191 µM), the “MIC (minimum growth-inhibition concentration)” value ([10]; Vibrio anguillarum strain NA8341, 25-30 °C) was 0.05 µg/mL (≈ 0.191 µM) and the “MIC (minimum growth-inhibition concentration)” value ([10]; Vibrio anguillarum strain NA8346, 25-30 °C) was 0.05 µg/mL (≈ 0.191 µM). For the same compound, the “MIC (minimum growth-inhibition concentration)” value ([10]; Vibrio anguillarum strain NA8347, 25-30 °C) was 0.05 µg/mL (≈ 0.191 µM) and the MIC [10] was 0.05 µg/mL (≈ 0.191 µM).

Compound `CCN1CCN(c2cc3c(cc2F)c(=O)c(C(=O)O)cn3C2CC2)CC1` [Compound D, 1-cyclopropyl-6-fluoro-1,4-dihydro-4-oxo-7-(4-ethylpiperazino)-quinoline-3-carboxylic acid] has an MIC [1, 11] of 0.025 to 0.2 µg/mL (≈ 0.0696 to 0.556 µM), an MIC ([2]; Pasteurella piscicida, 25 strains, Mueller-Hinton agar, 25-30 °C) of 0.0125 to 0.05 µg/mL (≈ 0.0348 to 0.139 µM) and an MIC [3, 11] of 0.0125 to 0.1 µg/mL (≈ 0.0348 to 0.278 µM). The MIC ([4]; Streptococcus sp., 25 strains, Mueller-Hinton agar, 25-30 °C) was 0.8 µg/mL (≈ 2.23 µM), the MIC ([6]; Ayu origin, 25 strains, Mueller-Hinton agar, 25-30 °C, read-out: MIC (minimum growth-inhibition concentration)) was 0.025 to 0.4 µg/mL (≈ 0.0696 to 1.11 µM) and the MIC ([6]; Yellowtail origin, 25 strains, Mueller-Hinton agar, 25-30 °C, read-out: MIC (minimum growth-inhibition concentration)) was 0.05 to 0.1 µg/mL (≈ 0.139 to 0.278 µM). For the same compound, the MIC ([7]; 18 strains, Mueller-Hinton agar, 25-30 °C) was 0.0125 to 0.025 µg/mL (≈ 0.0348 to 0.0696 µM), the “MIC (minimum growth-inhibition concentration)” value ([8]; Pasteurella piscicida strain EH8309, 25-30 °C) was 0.025 µg/mL (≈ 0.0696 µM) and the “MIC (minimum growth-inhibition concentration)” value ([8]; Pasteurella piscicida strain NG8319, 25-30 °C) was 0.025 µg/mL (≈ 0.0696 µM). For the same compound, the MIC ([8]; Pasteurella piscicida strain EH8304, Mueller-Hinton agar, 25-30 °C, read-out: MIC (minimum growth-inhibition concentration)) was 0.05 µg/mL (≈ 0.139 µM), the MIC ([8]; Pasteurella piscicida strain EH8312, Mueller-Hinton agar, 25-30 °C, read-out: MIC (minimum growth-inhibition concentration)) was 0.05 µg/mL (≈ 0.139 µM) and the MIC ([8]; Pasteurella piscicida strain EH8313, Mueller-Hinton agar, 25-30 °C, read-out: MIC (minimum growth-inhibition concentration)) was 0.05 µg/mL (≈ 0.139 µM). For the same compound, the “MIC (minimum growth-inhibition concentration)” value ([9]; Aeromonas hydrophila strain C 44, 25-30 °C) was less than 0.0125 µg/mL, the “MIC (minimum growth-inhibition concentration)” value ([9]; Aeromonas hydrophila strain KA8414, 25-30 °C) was less than 0.0125 µg/mL and the “MIC (minimum growth-inhibition concentration)” value ([9]; Aeromonas hydrophila strain KA8416, 25-30 °C) was less than 0.0125 µg/mL. For the same compound, the “MIC (minimum growth-inhibition concentration)” value ([9]; Aeromonas hydrophila strain M 183, 25-30 °C) was less than 0.0125 µg/mL, the MIC ([9]; Aeromonas hydrophila strain KA8301, Mueller-Hinton agar, 25-30 °C, read-out: MIC (minimum growth-inhibition concentration)) was 0.025 µg/mL (≈ 0.0696 µM) and the MIC ([10]; Vibrio anguillarum strain NA8340, Mueller-Hinton agar, 25-30 °C) was 0.025 µg/mL (≈ 0.0696 µM). It also gave an MIC ([10]; Vibrio anguillarum strain NA8341, Mueller-Hinton agar, 25-30 °C) of 0.025 µg/mL (≈ 0.0696 µM), an MIC ([10]; Vibrio anguillarum strain NA8346, Mueller-Hinton agar, 25-30 °C) of 0.025 µg/mL (≈ 0.0696 µM) and an MIC ([10]; Vibrio anguillarum strain NA8347, Mueller-Hinton agar, 25-30 °C) of 0.025 µg/mL (≈ 0.0696 µM). The MIC ([10]; Vibrio anguillarum strain NH8410, Mueller-Hinton agar, 25-30 °C) was 0.025 µg/mL (≈ 0.0696 µM).
